Measured values reported in US20250052985A1, “SYSTEM AND METHOD FOR QUANTITATIVE PHASE IMAGING FOR MULTI-PARAMETRIC SCREENING OF TUMOR THERAPY RESPONSE” (UNIVERSITY OF UTAH RESEARCH FOUNDATION, priority 2023, published 2025).
Several values for one entry are separate records, joined by “and”; a condition that tells them apart may be missing. Equal values may be shown once. Read-outs that look alike come from different tables or passages of the source. Blank lines part the entries; values can stand above or below the molecule they belong to.

Legend:
MCF-7 cells [1] = assay: CellTiter-Glo (CTG) ATP viability assay, MCF-7; assay type: cell-based; settings: for Min Asymptote: MCF-7, Hill fit of luminescence normalized to solvent control, one line per replicate; for EC50: Homo sapiens; for DoR CTG: MCF-7 cell line, depth of response
Experimental: (§1) CTG (e.g., read by the CTG reader 115) is a cell viability assay that quantifies the amount of ATP present at the end of an experiment as an indicator of the number of live cells. The electronic controller 155 measures ATP content in each condition as a readout by a luminescent signal, which is normalized by the luminescence of the control (e.g., a control well) to determine cell viability relative to on-plate controls. In some embodiments, the CTG assay is performed by first removing 100 μL of media from each well on the well-plate 105, which is then replaced with an equal amount of CellTiter-Glo reagent (e.g., Promega, G7572). Assayed plates may be shaken at 500 RPM for 20 minutes and allowed to rest for 10 minutes. In some instances, 100 μL of volume from each well is transferred to a white 96-well plate (e.g., Perkin Elmer, 6005680). The electronic controller 155 collects luminescence data from each well using an Envision plate reader (e.g., Perkin Elmer) and normalized against the solvent control to measure ATP content. The electronic controller 155 fits a 4-parameter hill curve to the dose response to determine the EC50 and depth of response.

MDA-MB-231 cells [2] = assay: Quantitative phase imaging (QPI) growth response, MDA-MB-231; assay type: cell-based; parameters: DoR QPI: scale not given here; ToR 20 μM: unit not given here; settings: for Max Asymptote / Min Asymptote: MDA-MB-231, 4-parameter Hill fit of mean SGR vs concentration, one line per replicate; for EC50: Homo sapiens; for DoR QPI / ToR 20 μM: MDA-MB-231 cell line; for DoR QPI: depth of response; for ToR 20 μM: time of response at 20 μM
Procedure, shortened: (§2)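 Breast cancer lines imaged noninvasively by DPC-based quantitative phase imaging across 6-point dose responses in triplicate with solvent controls, for 24 h or 72 h after 3 h equilibration, then CellTiter-Glo ATP viability. Mean specific growth rate fitted to a 4-parameter Hill curve for EC50, with an F-test (p<0.01) against a flat line to determine response.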

BT-474 cells = assay: cells; settings: for Max Asymptote / Min Asymptote: BT-474, 4-parameter Hill fit of mean SGR vs concentration, one line per replicate; for Hill Slope: BT-474, Hill fit; for DoR QPI: depth of response; for EC50: Homo sapiens
Procedure, shortened: as §2

MCF-7 cells [3] = assay: cells; settings: for Max Asymptote / Min Asymptote: MCF-7, 4-parameter Hill fit of mean SGR vs concentration, one line per replicate; for EC50: Homo sapiens; for DoR QPI / ToR 20 μM: MCF-7 cell line; for DoR QPI: depth of response; for ToR 20 μM: time of response at 20 μM
Procedure, shortened: as §2

MDA-MB-231 cells [4] = assay: CellTiter-Glo (CTG) ATP viability assay, MDA-MB-231; assay type: cell-based; settings: for Min Asymptote: MDA-MB-231, Hill fit of luminescence normalized to solvent control, one line per replicate; for EC50: Homo sapiens; for DoR CTG: MDA-MB-231 cell line, depth of response
Experimental: as §1

[5] = MCF7, MCF-7 cell line, CellTiter-Glo, read-out: EC50, CTG (converted)
[6] = MDA-MB-231, MDA-MB-231 cell line, QPI growth rate, read-out: EC50, QPI
[7] = BT-474, 24 h, read-out: log10(EC50), 24 h QPI, BT-474, Hill fit (converted), EC50 in μM per Table 1
[8] = BT-474, read-out: EC50, QPI, BT-474 cell line, QPI growth rate
[9] = MCF7, 24 h, read-out: log10(EC50), 24 h QPI, MCF-7, Hill fit (converted), EC50 in μM per Table 1
[10] = MCF7, read-out: EC50, QPI, MCF-7 cell line, QPI growth rate
[11] = MDA-MB-231, MDA-MB-231 cell line, CellTiter-Glo, read-out: EC50, CTG

log10(EC50) (MCF-7 cells [1]; 72 h CTG, MCF-7, Hill fit): 2.689
EC50 (MCF-7 cells [1]; MCF7, 72 h, 72 h CTG, MCF-7, Hill fit, read-out: log10(EC50) (converted)): 0.00215 µM
EC50 (MCF-7 cells [1]; [5]): 1.6 µM
EC50 (MDA-MB-231 cells [2]; MDA-MB-231, MDA-MB-231 cell line, EC50 of the standard deviation, read-out: EC50, SD (converted)): 14.9 µM
EC50 (MDA-MB-231 cells [2]; [6]): 0.4 µM
EC50 (BT-474 cells; [7]): 48.8 µM
EC50 (BT-474 cells; [8]): 14.9 µM
EC50 (MCF-7 cells [3]; [9]): 0.00154 µM
EC50 (MCF-7 cells [3]; [10]): 0.3 µM
EC50 (MDA-MB-231 cells [4]; MDA-MB-231, 24 h, 24 h CTG, MDA-MB-231, Hill fit, read-out: log10(EC50) (converted)): 1.83 µM
EC50 (MDA-MB-231 cells [4]; [11]): 3 µM
SMILES: CC[C@]1(O)C[C@@H]2CN(CCc3c([nH]c4ccccc34)[C@@](C(=O)OC)(c3cc4c(cc3OC)N(C)[C@H]3[C@@](O)(C(=O)OC)[C@H](OC(C)=O)[C@]5(CC)C=CCN6CC[C@]43[C@@H]65)C2)C1 [Vinblastine]
Hill Slope (MCF-7 cells [1]; 72 h CTG, MCF-7, Hill fit): 0.2572 and 0.2217
Min Asymptote (MCF-7 cells [1]; 72 h CTG): 4.32E−11 (2×) and 1.18E−11
DoR CTG (MCF-7 cells [1]; CellTiter-Glo): 0.8
Max Asymptote (MDA-MB-231 cells [2]; 24 h QPI): 0.02419 and 0.02824 and 0.03124
Min Asymptote (MDA-MB-231 cells [2]; 24 h QPI): 0.0149 and 0.01503 and 0.01517
Max Asymptote (MDA-MB-231 cells [2]; 72 h QPI): 0.007654 and 0.0105 and 0.007938
Min Asymptote (MDA-MB-231 cells [2]; 72 h QPI): 0.03001 and 0.01871 and 0.03086
growth rate and heterogeneity over time (MDA-MB-231 cells [2]; MDA-MB-231): decrease in growth rate and heterogeneity simultaneously
growth rate and heterogeneity over time (MDA-MB-231 cells [2]; MDA-MB-231, 0.4 μM): decrease in growth rate and heterogeneity simultaneously
growth rate and heterogeneity over time (MDA-MB-231 cells [2]; MDA-MB-231, 2 μM): decrease in growth rate and heterogeneity simultaneously
growth rate and heterogeneity over time (MDA-MB-231 cells [2]; MDA-MB-231, 20 μM): decrease in growth rate and heterogeneity simultaneously
growth rate and heterogeneity as concentration increases (MDA-MB-231 cells [2]; MDA-MB-231, FIG. 22): decrease in growth rate and heterogencity simultaneously
growth rate and heterogeneity over time (MDA-MB-231 cells [2]; MDA-MB-231, lowest concentrations, FIG. 21 G-H): growth rate decreases over time with little change in heterogeneity
DoR QPI (MDA-MB-231 cells [2]): 0.8
ToR 20 μM (MDA-MB-231 cells [2]): 4.7
Max Asymptote (BT-474 cells; 24 h QPI): 0.007582
Min Asymptote (BT-474 cells; 24 h QPI): −0.004812
Hill Slope (BT-474 cells; 24 h QPI): 0.4052
Max Asymptote (BT-474 cells; 72 h QPI): −0.001678 and −0.002248
Min Asymptote (BT-474 cells; 72 h QPI): 0.002895 and 0.003538
Hill Slope (BT-474 cells; 72 h QPI): 2.4178 and 1.3815
growth rate and heterogeneity over time (BT-474 cells; BT-474, 0.0016 μM): decrease in growth rate at constant heterogeneity that is greater than the control
growth rate and heterogeneity over time (BT-474 cells; BT-474, 0.016 μM): decreased growth rate and increased heterogeneity
growth rate and heterogeneity over time (BT-474 cells; BT-474, 0.4 μM): reduced growth rate at the same level of heterogeneity as the control
average growth rate over time (BT-474 cells; BT-474, 20 μM): slowly decreases over 12-60 h of treatment
growth rate and heterogeneity over time (BT-474 cells; BT-474, 20 μM): decreases, while the heterogeneity for both populations increases
change of population spread (SD) of SGR (BT-474 cells; BT-474, 20 μM, with significant decrease in mean response): no significant change to the spread
response of growth rate and heterogeneity to treatment (BT-474 cells; BT-474, FIG. 5E, 22, 23): both reduced growth rate and slightly increased heterogeneity
growth rate and heterogeneity as concentration increases (BT-474 cells; BT-474, FIG. 22): decrease in growth rate as concentration increases while heterogeneity remains constant
DoR QPI (BT-474 cells; BT-474 cell line): 2.8
ToR 20 μM (BT-474 cells; BT-474 cell line, time of response at 20 μM): 4.9
Max Asymptote (MCF-7 cells [3]; 24 h QPI): 0.01958
Min Asymptote (MCF-7 cells [3]; 24 h QPI): 0.005796
Hill Slope (MCF-7 cells [3]; 24 h QPI, MCF-7, Hill fit): 3.2016
Min Asymptote (MCF-7 cells [3]; 72 h QPI): 0.01979 and 0.02842 and 0.02817
Hill Slope (MCF-7 cells [3]; 72 h QPI, MCF-7, Hill fit): 0.3759 and 0.3808 and 0.4308
DoR QPI (MCF-7 cells [3]): 0.4
ToR 20 μM (MCF-7 cells [3]): −3.0
Hill Slope (MDA-MB-231 cells [4]; 24 h CTG, MDA-MB-231, Hill fit): 0.3445
Min Asymptote (MDA-MB-231 cells [4]; 24 h CTG): 0.5659
Min Asymptote (MDA-MB-231 cells [4]; 72 h CTG): 0.06356 and 0.2911
DoR CTG (MDA-MB-231 cells [4]; CellTiter-Glo): 1.0

EC50 (MCF-7 cells [1]; MCF7, 24 h, 24 h CTG, MCF-7, Hill fit, read-out: log10(EC50) (converted)): 1.89 µM
EC50 (MCF-7 cells [1]; [5]): 10.8 µM
EC50 (MDA-MB-231 cells [2]; MDA-MB-231, 24 h, 24 h QPI, MDA-MB-231, Hill fit, EC50 in μM per Table 1, read-out: log10(EC50) (converted)): 17.4 µM
EC50 (MDA-MB-231 cells [2]; MDA-MB-231, 72 h, 72 h QPI, MDA-MB-231, Hill fit, EC50 in μM per Table 1, read-out: log10(EC50) (converted)): 118 µM
EC50 (MDA-MB-231 cells [2]; [6]): 118 µM
EC50 (BT-474 cells; [7]): 0.0682 µM
EC50 (BT-474 cells; [8]): 0.1 µM
log10(EC50) (MCF-7 cells [3]; 24 h QPI, MCF-7, Hill fit, EC50 in μM per Table 1): −1.151
EC50 (MCF-7 cells [3]; [9]): 8.57 µM
EC50 (MCF-7 cells [3]; [10]): 25.7 µM
EC50 (MDA-MB-231 cells [4]; MDA-MB-231, 72 h, 72 h CTG, MDA-MB-231, Hill fit, read-out: log10(EC50) (converted)): 6 µM
EC50 (MDA-MB-231 cells [4]; [11]): 6 µM
SMILES: O=c1[nH]cc(F)c(=O)[nH]1 [5FU, 5-Fluorouracil]
Hill Slope (MCF-7 cells [1]; 24 h CTG, MCF-7, Hill fit): 7.081
Min Asymptote (MCF-7 cells [1]; 24 h CTG): 0.9238
Hill Slope (MCF-7 cells [1]; 72 h CTG, MCF-7, Hill fit): 1.254 and 1.059 and 1.202
Min Asymptote (MCF-7 cells [1]; 72 h CTG): 0.1952 and 0.003653 and 0.01678
DoR CTG (MCF-7 cells [1]; CellTiter-Glo): 0.9
Max Asymptote (MDA-MB-231 cells [2]; 24 h QPI): 0.03336
Min Asymptote (MDA-MB-231 cells [2]; 24 h QPI): 0.01996
Hill Slope (MDA-MB-231 cells [2]; 24 h QPI, MDA-MB-231, Hill fit): 0.341
Max Asymptote (MDA-MB-231 cells [2]; 72 h QPI): −0.009666
Min Asymptote (MDA-MB-231 cells [2]; 72 h QPI): 0.03351
Hill Slope (MDA-MB-231 cells [2]; 72 h QPI, MDA-MB-231, Hill fit): 0.4483
DoR QPI (MDA-MB-231 cells [2]): 1.2
ToR 20 μM (MDA-MB-231 cells [2]): 15.2
Max Asymptote (BT-474 cells; 24 h QPI): 0.01107
Min Asymptote (BT-474 cells; 24 h QPI): 0.009021
Hill Slope (BT-474 cells; 24 h QPI): 0.9134
Max Asymptote (BT-474 cells; 72 h QPI): 0.007708 and 0.007733
Min Asymptote (BT-474 cells; 72 h QPI): 0.008643 and 0.009665
Hill Slope (BT-474 cells; 72 h QPI): 1.5745 and 1.1389
DoR QPI (BT-474 cells; BT-474 cell line): 0.2
Max Asymptote (MCF-7 cells [3]; 24 h QPI): 0.02676 and 0.02665 (2×)
Min Asymptote (MCF-7 cells [3]; 24 h QPI): 0.01382 and 0.007436 (2×)
Min Asymptote (MCF-7 cells [3]; 72 h QPI): 0.0232 and 0.02426 and 0.02866
DoR QPI (MCF-7 cells [3]): 1.0
ToR 20 μM (MCF-7 cells [3]): 9.4
Hill Slope (MDA-MB-231 cells [4]; 72 h CTG, MDA-MB-231, Hill fit): 1.997
Min Asymptote (MDA-MB-231 cells [4]; 72 h CTG): 0.4937
DoR CTG (MDA-MB-231 cells [4]; CellTiter-Glo): 0.5
